According to PubChem BioAssay AID2060508 (Molecular Pharmacology Branch, DTP, NCI, 2025):

System: 454973-116-R2-J3-PDC spheroids, viability, % test/control
Test: Anticancer human tumor 454973-116-R2-J3-PDC patient-derived pancreatic carcinoma cell line growth inhibition [GQUAD]
Settings: spheroids with HUVEC and MSC; for IC50: curve of first compound; for viability, T/C: stronger effect = lower value
How it was run: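 Multi-cell-type spheroids of tumor cells with HUVEC and mesenchymal stem cells, treated with drug combinations. Concentrations descend in half-log steps from near clinical Cmax, or from 10 microM where Cmax is unknown; viability read-out.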

[1] = second compound 0.0316 µM, first compound 0.0316 µM
[2] = second compound 0.0316 µM, first compound 0.316 µM
[3] = second compound 0.1 µM, first compound 0.0316 µM
[4] = second compound 0.1 µM, first compound 0.316 µM
[5] = second compound 0.316 µM, first compound 0.0316 µM
[6] = second compound 0.316 µM, first compound 0.316 µM
[7] = second compound 1 µM, first compound 0.0316 µM
[8] = second compound 1 µM, first compound 0.316 µM
[9] = second compound 3.16 µM, first compound 0.0316 µM
[10] = second compound 3.16 µM, first compound 0.316 µM
[11] = second compound 10 µM, first compound 0.0316 µM
[12] = second compound 10 µM, first compound 0.316 µM
[13] = second compound 0.0316 µM, first compound 0.1 µM
[14] = second compound 0.0316 µM, first compound 1 µM
[15] = second compound 0.0316 µM, first compound 3.16 µM
[16] = second compound 0.0316 µM, first compound 10 µM
[17] = second compound 0.1 µM, first compound 0.1 µM
[18] = second compound 0.1 µM, first compound 1 µM
[19] = second compound 0.1 µM, first compound 3.16 µM
[20] = second compound 0.1 µM, first compound 10 µM
[21] = second compound 0.316 µM, first compound 0.1 µM
[22] = second compound 0.316 µM, first compound 1 µM
[23] = second compound 0.316 µM, first compound 3.16 µM
[24] = second compound 0.316 µM, first compound 10 µM
[25] = second compound 1 µM, first compound 0.1 µM
[26] = second compound 1 µM, first compound 1 µM
[27] = second compound 1 µM, first compound 3.16 µM
[28] = second compound 1 µM, first compound 10 µM
[29] = second compound 3.16 µM, first compound 0.1 µM
[30] = second compound 3.16 µM, first compound 1 µM
[31] = second compound 3.16 µM, first compound 3.16 µM
[32] = second compound 3.16 µM, first compound 10 µM
[33] = second compound 10 µM, first compound 0.1 µM
[34] = second compound 10 µM, first compound 1 µM
[35] = second compound 10 µM, first compound 3.16 µM
[36] = second compound 10 µM, first compound 10 µM
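Note: spheroids exposed to compounds for seven days.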
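Throughout, for viability, T/C: 100% = DMSO vehicle control viability.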

With `CCc1c2c(nc3ccc(O)cc13)-c1cc3c(c(=O)n1C2)COC(=O)[C@]3(O)CC` + Cc1cnc(CNC(=O)c2c(=O)c3ccc(N4CCCN(C)CC4)nc3n3c2sc2ccccc23)cn1 the IC50 (second compound 0.0316 µM) was less than 0.999 nM, the IC50 (second compound 0.1 µM) was less than 0.999 nM and the IC50 (second compound 0.316 µM) was less than 0.999 nM. For the same compound, the IC50 (second compound 1 µM) was 1.45 nM, the IC50 (second compound 3.16 µM) was 4.04 nM and the IC50 (second compound 10 µM) was less than 0.999 nM. The viability, T/C (second compound 0.0316 µM, first compound 0.000999 µM) was 45.7%, the viability, T/C (second compound 0.0316 µM, first compound 0.00316 µM) was 24.6% and the viability, T/C (second compound 0.0316 µM, first compound 0.00999 µM) was 22.9%. The viability, T/C [1] was 12.3%, the viability, T/C (second compound 0.0316 µM, first compound 0.0999 µM) was 7.38% and the viability, T/C [2] was 4.15%. The viability, T/C (second compound 0.1 µM, first compound 0.000999 µM) was 36.2%, the viability, T/C (second compound 0.1 µM, first compound 0.00316 µM) was 24.1% and the viability, T/C (second compound 0.1 µM, first compound 0.00999 µM) was 22.9%. For the same compound, the viability, T/C [3] was 14.8%, the viability, T/C (second compound 0.1 µM, first compound 0.0999 µM) was 7.21% and the viability, T/C [4] was 4.8%. For the same compound, the viability, T/C (second compound 0.316 µM, first compound 0.000999 µM) was 37.7%, the viability, T/C (second compound 0.316 µM, first compound 0.00316 µM) was 34.2% and the viability, T/C (second compound 0.316 µM, first compound 0.00999 µM) was 33.7%. The viability, T/C [5] was 15.9%, the viability, T/C (second compound 0.316 µM, first compound 0.0999 µM) was 7.83% and the viability, T/C [6] was 4.86%. It also gave a viability, T/C (second compound 1 µM, first compound 0.000999 µM) of 47.1%, a viability, T/C (second compound 1 µM, first compound 0.00316 µM) of 54.1% and a viability, T/C (second compound 1 µM, first compound 0.00999 µM) of 36.5%. The viability, T/C [7] was 22.2%, the viability, T/C (second compound 1 µM, first compound 0.0999 µM) was 7.17% and the viability, T/C [8] was 2.75%. For the same compound, the viability, T/C (second compound 3.16 µM, first compound 0.000999 µM) was 59.7%, the viability, T/C (second compound 3.16 µM, first compound 0.00316 µM) was 51.9% and the viability, T/C (second compound 3.16 µM, first compound 0.00999 µM) was 40%. The viability, T/C [9] was 26.1%, the viability, T/C (second compound 3.16 µM, first compound 0.0999 µM) was 7.65% and the viability, T/C [10] was 0.55%. It also gave a viability, T/C (second compound 10 µM, first compound 0.000999 µM) of 16.4%, a viability, T/C (second compound 10 µM, first compound 0.00316 µM) of 16.7% and a viability, T/C (second compound 10 µM, first compound 0.00999 µM) of 38.7%. For the same compound, the viability, T/C [11] was 0.26%, the viability, T/C (second compound 10 µM, first compound 0.0999 µM) was 0.24% and the viability, T/C [12] was 0.7%.
With `COc1cc(C2c3cc4c(cc3C(OC3OC5COC(C)OC5C(O)C3O)C3COC(=O)C23)OCO4)cc(OC)c1O` (stereo unspecified) + Cc1cnc(CNC(=O)c2c(=O)c3ccc(N4CCCN(C)CC4)nc3n3c2sc2ccccc23)cn1 the IC50 (second compound 0.0316 µM) was 644 nM, the IC50 (second compound 0.1 µM) was 507 nM and the IC50 (second compound 0.316 µM) was 469 nM. The IC50 (second compound 1 µM) was 1060 nM, the IC50 (second compound 3.16 µM) was 1800 nM and the IC50 (second compound 10 µM) was less than 31.6 nM. For the same compound, the viability, T/C [1] was 100%, the viability, T/C [13] was 80.6% and the viability, T/C [2] was 70.7%. For the same compound, the viability, T/C [14] was 39.3%, the viability, T/C [15] was 17.8% and the viability, T/C [16] was 12.4%. For the same compound, the viability, T/C [3] was 85%, the viability, T/C [17] was 73.7% and the viability, T/C [4] was 59.2%. It also gave a viability, T/C [18] of 35%, a viability, T/C [19] of 28.6% and a viability, T/C [20] of 12%. The viability, T/C [5] was 75.6%, the viability, T/C [21] was 73.9% and the viability, T/C [6] was 53%. The viability, T/C [22] was 38%, the viability, T/C [23] was 29.4% and the viability, T/C [24] was 16.7%. The viability, T/C [7] was 67.8%, the viability, T/C [25] was 61.8% and the viability, T/C [8] was 55.9%. The viability, T/C [26] was 51.5%, the viability, T/C [27] was 40.5% and the viability, T/C [28] was 21.9%. The viability, T/C [9] was 66.9%, the viability, T/C [29] was 68.4% and the viability, T/C [10] was 58.3%. For the same compound, the viability, T/C [30] was 53.7%, the viability, T/C [31] was 47.5% and the viability, T/C [32] was 31.3%. The viability, T/C [11] was 16.2%, the viability, T/C [33] was 17.1% and the viability, T/C [12] was 58.4%. It also gave a viability, T/C [34] of 49.7%, a viability, T/C [35] of 29.3% and a viability, T/C [36] of 0.59%.
With `COc1cccc2c1C(=O)c1c(O)c3c(c(O)c1C2=O)CC(O)(C(=O)CO)CC3OC1CC(N)C(O)C(C)O1` (stereo unspecified) + Cc1cnc(CNC(=O)c2c(=O)c3ccc(N4CCCN(C)CC4)nc3n3c2sc2ccccc23)cn1 the IC50 (second compound 0.0316 µM) was 166 nM, the IC50 (second compound 0.1 µM) was 184 nM and the IC50 (second compound 0.316 µM) was 418 nM. It also gave an IC50 (second compound 1 µM) of 746 nM, an IC50 (second compound 3.16 µM) of 763 nM and an IC50 (second compound 10 µM) of less than 31.6 nM. For the same compound, the viability, T/C [1] was 92.9%, the viability, T/C [13] was 52.9% and the viability, T/C [2] was 37.9%. For the same compound, the viability, T/C [14] was 28.8%, the viability, T/C [15] was 12.9% and the viability, T/C [16] was 0.39%. It also gave a viability, T/C [3] of 74.5%, a viability, T/C [17] of 45.4% and a viability, T/C [4] of 43.4%. The viability, T/C [18] was 41%, the viability, T/C [19] was 13.4% and the viability, T/C [20] was 0.51%. It also gave a viability, T/C [5] of 66.4%, a viability, T/C [21] of 52.3% and a viability, T/C [6] of 49.3%. The viability, T/C [22] was 44%, the viability, T/C [23] was 12% and the viability, T/C [24] was 0.51%. The viability, T/C [7] was 62.4%, the viability, T/C [25] was 54.9% and the viability, T/C [8] was 62.8%. The viability, T/C [26] was 46.2%, the viability, T/C [27] was 12.3% and the viability, T/C [28] was 0.26%. The viability, T/C [9] was 68%, the viability, T/C [29] was 69.2% and the viability, T/C [10] was 63.3%. It also gave a viability, T/C [30] of 46%, a viability, T/C [31] of 11% and a viability, T/C [32] of 0.67%. It also gave a viability, T/C [11] of 15.2%, a viability, T/C [33] of 20% and a viability, T/C [12] of 43.8%. For the same compound, the viability, T/C [34] was 27.7%, the viability, T/C [35] was 0.35% and the viability, T/C [36] was 0.21%.
